This passage reports IC50 results from patent US9555039B2, “Piperidine derivatives and compositions for the inhibition of nicotinamide phosphoribosyltransferase (NAMPT)” (Forma TM, LLC., priority 2011, dated 2017).

Test [1] concerns the target T1, Recombinant His-tagged NAMPT (Homo sapiens, UniProt P43490).
T1 construct: His; host or cells: E. coli
Description: Biochemical inhibition assay: NAMPT enzymatic reaction, NMN quantified by mass spectrometry. As to conditions: 33 nM NAMPT, 1 μM NAM, 100 μM PRPP, 2.5 mM ATP, 30 minutes at room temperature; read-out: Biochem IC50. The method in brief:
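Reaction 30 min at room temperature with 1 μM NAM, 100 μM PRPP, 2.5 mM ATP (final), quenched with formic acid. NMN quantified by RapidFire electrospray MS, normalized to L-cystathionine; IC50 from percent inhibition versus DMSO.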

The test system of a further test is A2780 cells. Description: In-vitro cell proliferation assay (SRB, 72 hours). The following applies: Homo sapiens, sulforhodamine B (SRB) assay. The format is cell-based. The method in brief:
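Viable cells measured by TCA fixation and SRB staining, absorbance 570 nm; % inhibition vs DMSO control after media-only background subtraction, interpolated between two bracketing concentrations.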
Background: Sulforhodamine B stains cellular protein and so reports cell mass.

T1 sequence (P43490 whole entry): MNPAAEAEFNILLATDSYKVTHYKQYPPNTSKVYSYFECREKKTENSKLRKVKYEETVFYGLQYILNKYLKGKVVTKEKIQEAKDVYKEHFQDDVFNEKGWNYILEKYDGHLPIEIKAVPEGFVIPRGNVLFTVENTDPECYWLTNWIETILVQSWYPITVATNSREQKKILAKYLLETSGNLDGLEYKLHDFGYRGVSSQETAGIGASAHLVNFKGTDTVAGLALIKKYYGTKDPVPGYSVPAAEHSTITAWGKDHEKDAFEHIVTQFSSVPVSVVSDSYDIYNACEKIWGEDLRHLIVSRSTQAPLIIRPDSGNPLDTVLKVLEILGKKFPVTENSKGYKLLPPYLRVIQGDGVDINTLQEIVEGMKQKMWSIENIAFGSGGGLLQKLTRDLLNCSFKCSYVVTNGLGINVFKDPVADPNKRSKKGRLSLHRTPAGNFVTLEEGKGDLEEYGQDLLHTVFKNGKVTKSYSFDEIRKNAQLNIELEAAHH

As usually defined, the IC50 is the concentration at which inhibition is half-maximal. With `O=C(NCCCCC1CCN(C(=O)c2csc(C(F)(F)F)n2)CC1)c1cc2ccncc2s1` [N-[4-(1-{[2-(trifluoromethyl)-1,3-thiazol-4-yl]carbonyl}piperidin-4-yl)butyl]thieno[2,3-c]pyridine-2-carboxamide], the half-inhibitory concentration (IC50) was 94 nM in test [1] and 100 to 1000 nM with A2780 cells.

Turning to `COc1ccc(C(=O)N2CCC(CCCCNC(=O)c3cc4ccncc4s3)CC2)cc1` [N-(4-{1-[(4-methoxyphenyl)carbonyl]piperidin-4-yl}butyl)thieno[2,3-c]pyridine-2-carboxamide], the concentration for half-maximal inhibition (IC50) worked out at 52.2 nM in test [1] and 80.3 nM in the test with A2780 cells.

Take `COc1ncc(Cl)cc1C(=O)N1CCC(CCCCNC(=O)c2cc3ccncc3s2)CC1` [N-(4-{1-[(5-chloro-2-methoxypyridin-3-yl)carbonyl]piperidin-4-yl}butyl)thieno[2,3-c]pyridine-2-carboxamide]: the IC50 in test [1] worked out at 17 nM; with A2780 cells, 7.1 nM.

For the compound `CCOc1cccc(C(=O)N2CCC(CCCCNC(=O)c3cc4ccncc4s3)CC2)c1` [N-(4-{1-[(3-ethoxyphenyl)carbonyl]piperidin-4-yl}butyl)thieno[2,3-c]pyridine-2-carboxamide], the values for the half-maximal inhibitory concentration (IC50) (in test [1]; in the test with A2780 cells) were 39.1 nM and 76.5 nM, respectively.

Consider `Cn1ccc(S(=O)(=O)N2CCC(CCCCNC(=O)c3cc4cnccc4[nH]3)CC2)n1` [N-{4-[1-(1-methyl-1H-pyrazole-3-sulfonyl)piperidin-4-yl]butyl}-1H-pyrrolo[3,2-c]pyridine-2-carboxamide], for which the figures for the half-inhibitory concentration (IC50) (in test [1]; in the test on A2780 cells) were 49.5 nM and 6.8 nM, respectively.

For the compound `COCc1ccc(C(=O)N2CCC(CCCCNC(=O)c3ccc4nccn4c3)CC2)nc1` [N-[4-(1-{[5-(methoxymethyl)pyridin-2-yl]carbonyl}piperidin-4-yl)butyl]imidazo[1,2-a]pyridine-6-carboxamide], the IC50 in test [1] came out at 57.4 nM; in the test on A2780 cells it was 67.1 nM.

Consider `O=C(NCCCCC1CCN(C(=O)c2ccc(F)cc2F)CC1)c1cc2ccncc2s1` [N-(4-{1-[(2,4-difluorophenyl)carbonyl]piperidin-4-yl}butyl)thieno[2,3-c]pyridine-2-carboxamide], for which the IC50 in test [1] was found to be 12.8 nM; with A2780 cells, 13.5 nM.

Turning to `COc1ccc(C(=O)N2CCC(CCCCNC(=O)c3cc4ccncc4s3)CC2)cc1OC` [N-(4-{1-[(3,4-dimethoxyphenyl)carbonyl]piperidin-4-yl}butyl)thieno[2,3-c]pyridine-2-carboxamide], the results for the IC50 (in test [1]; in the test with A2780 cells) were 32.6 nM and 6.9 nM, respectively.

With `COc1cc(Cl)ccc1C(=O)N1CCC(CCCCNC(=O)c2cc3ccncc3s2)CC1` [N-(4-{1-[(4-chloro-2-methoxyphenyl)carbonyl]piperidin-4-yl}butyl)thieno[2,3-c]pyridine-2-carboxamide], the figures for the IC50 (in test [1]; in the test on A2780 cells) were 15.5 nM and 13 nM, respectively.

For the compound `O=C(NCCCCC1CCN(C(=O)c2cccc(F)c2)CC1)c1ccc2nccn2c1` [N-(4-{1-[(3-fluorophenyl)carbonyl]piperidin-4-yl}butyl)imidazo[1,2-a]pyridine-6-carboxamide], the IC50 in test [1] turned out to be 9.2 nM; in the test with A2780 cells, 10.3 nM.

Turning to `O=C(NCCCCC1CCN(C(=O)c2ccc(Cl)cc2Cl)CC1)c1ccc2nccn2c1` [N-(4-{1-[(2,4-dichlorophenyl)carbonyl]piperidin-4-yl}butyl)imidazo[1,2-a]pyridine-6-carboxamide], the IC50 in test [1] worked out at 35.7 nM; in the test with A2780 cells, 14.4 nM.

Consider `COc1ccc(C(=O)N2CCC(CCCCNC(=O)c3cc4cnccc4[nH]3)CC2)cc1OC` [N-(4-{1-[(3,4-dimethoxyphenyl)carbonyl]piperidin-4-yl}butyl)-1H-pyrrolo[3,2-c]pyridine-2-carboxamide], for which the results for the 50% inhibitory concentration (IC50) (in test [1]; in the test with A2780 cells) were 68.6 nM and 3 nM, respectively.

Turning to `Cc1ccc(F)cc1C(=O)N1CCC(CCCCNC(=O)c2ccc3nccn3c2)CC1` [N-(4-{1-[(5-fluoro-2-methylphenyl)carbonyl]piperidin-4-yl}butyl)imidazo[1,2-a]pyridine-6-carboxamide], the figures for the IC50 (in test [1]; in the test with A2780 cells) were 10.9 nM and 3.9 nM, respectively.

Regarding `O=C(NCCCCC1CCN(S(=O)(=O)c2ccc(F)c(F)c2)CC1)c1cc2cnccc2[nH]1` [N-(4-{1-[(3,4-difluorobenzene)sulfonyl]piperidin-4-yl}butyl)-1H-pyrrolo[3,2-c]pyridine-2-carboxamide], the 50% inhibitory concentration (IC50) in test [1] came to 34.6 nM; with A2780 cells, 22.8 nM.

As for `O=C(NCCCCC1CCN(C(=O)c2ccc3[nH]ccc3c2)CC1)c1cc2ccncc2s1` [N-(4-{1-[(1H-indol-5-yl)carbonyl]piperidin-4-yl}butyl)thieno[2,3-c]pyridine-2-carboxamide], the figures for the 50% inhibitory concentration (IC50) (in test [1]; in the test with A2780 cells) were 42.7 nM and 71.1 nM, respectively.

Consider `Cc1ncccc1C(=O)N1CCC(CCCCNC(=O)c2ccc3nccn3c2)CC1` [N-(4-{1-[(2-methylpyridin-3-yl)carbonyl]piperidin-4-yl}butyl)imidazo[1,2-a]pyridine-6-carboxamide], for which the IC50 in test [1] was 9.8 nM; in the test with A2780 cells, 1.8 nM.

Consider `O=C(NCCCCC1CCN(C(=O)c2cnccc2C(F)(F)F)CC1)c1ccc2nccn2c1` [N-[4-(1-{[4-(trifluoromethyl)pyridin-3-yl]carbonyl}piperidin-4-yl)butyl]imidazo[1,2-a]pyridine-6-carboxamide], for which the figures for the half-maximal inhibitory concentration (IC50) (in test [1]; in the test with A2780 cells) were 15.6 nM and 3.8 nM, respectively.

Turning to `O=C(NCCCCC1CCN(S(=O)(=O)c2ccc(F)cc2)CC1)c1cc2cnccc2[nH]1` [N-(4-{1-[(4-fluorobenzene)sulfonyl]piperidin-4-yl}butyl)-1H-pyrrolo[3,2-c]pyridine-2-carboxamide], the IC50 in test [1] worked out at 48.9 nM; in the test on A2780 cells it was 17.6 nM.

On to `O=C(NCCCCC1CCN(C(=O)c2ccc3nccn3c2)CC1)c1cc2cnccc2[nH]1` [N-{4-[1-({imidazo[1,2-a]pyridin-6-yl}carbonyl)piperidin-4-yl]butyl}-1H-pyrrolo[3,2-c]pyridine-2-carboxamide], for which the IC50 in test [1] stood at 7.7 nM; with A2780 cells it was 13.8 nM.

Consider `COc1ccc(Cl)cc1C(=O)N1CCC(CCCCNC(=O)c2ccc3nccn3c2)CC1` [N-(4-{1-[(5-chloro-2-methoxyphenyl)carbonyl]piperidin-4-yl}butyl)imidazo[1,2-a]pyridine-6-carboxamide], for which the IC50 in test [1] is 10.5 nM; in the test with A2780 cells, 3.1 nM.

`O=C(NCCCCC1CCN(C(=O)c2ccc(F)cn2)CC1)c1cc2ccncc2s1` [N-(4-{1-[(5-fluoropyridin-2-yl)carbonyl]piperidin-4-yl}butyl)thieno[2,3-c]pyridine-2-carboxamide]: the results for the IC50 (in test [1]; in the test on A2780 cells) were 26.5 nM and 100 to 1000 nM, respectively.

Regarding `Cn1cnc(C(=O)N2CCC(CCCCNC(=O)c3cc4cnccc4[nH]3)CC2)c1` [N-(4-{1-[(1-methyl-1H-imidazol-4-yl)carbonyl]piperidin-4-yl}butyl)-1H-pyrrolo[3,2-c]pyridine-2-carboxamide], the IC50 in test [1] stood at 93.7 nM; in the test with A2780 cells, 55 nM.

Regarding `O=C(NCCCCC1CCN(C(=O)c2ccccc2OC(F)(F)F)CC1)c1ccc2nccn2c1` [N-[4-(1-{[2-(trifluoromethoxy)phenyl]carbonyl}piperidin-4-yl)butyl]imidazo[1,2-a]pyridine-6-carboxamide], the IC50 in test [1] came out at 2.5 nM; in the test on A2780 cells, 1.9 nM.

As for `O=C(NCCCCC1CCN(C(=O)c2ccc(C(F)(F)F)cc2)CC1)c1cc2ccncc2s1` [N-[4-(1-{[4-(trifluoromethyl)phenyl]carbonyl}piperidin-4-yl)butyl]thieno[2,3-c]pyridine-2-carboxamide], the values for the 50% inhibitory concentration (IC50) (in test [1]; with A2780 cells) were 305 nM and 1000 nM, respectively.

For the compound `O=C(NCCCCC1CCN(C(=O)c2cc(Cl)cc(Cl)c2)CC1)c1cc2cnccc2[nH]1` [N-(4-{1-[(3,5-dichlorophenyl)carbonyl]piperidin-4-yl}butyl)-1H-pyrrolo[3,2-c]pyridine-2-carboxamide], the IC50 in test [1] came out at 81.3 nM; with A2780 cells, 13 nM.

Regarding `COc1cccc(OC)c1C(=O)N1CCC(CCCCNC(=O)c2cc3cnccc3[nH]2)CC1` [N-(4-{1-[(2,6-dimethoxyphenyl)carbonyl]piperidin-4-yl}butyl)-1H-pyrrolo[3,2-c]pyridine-2-carboxamide], the IC50 came out at 21.5 nM in test [1] and 1.4 nM in the test on A2780 cells.

Take `Cc1nc(C)c(C(=O)N2CCC(CCCCNC(=O)c3ccc4nccn4c3)CC2)s1` [N-(4-{1-[(dimethyl-1,3-thiazol-5-yl)carbonyl]piperidin-4-yl}butyl)imidazo[1,2-a]pyridine-6-carboxamide]: the figures for the IC50 (in test [1]; in the test on A2780 cells) were 24.1 nM and 6.6 nM, respectively.

`O=C(NCCCCC1CCN(C(=O)c2cc(Cl)ccc2Cl)CC1)c1ccc2nccn2c1` [N-(4-{1-[(2,5-dichlorophenyl)carbonyl]piperidin-4-yl}butyl)imidazo[1,2-a]pyridine-6-carboxamide]: the IC50 worked out at 10.2 nM in test [1] and 5.5 nM in the test with A2780 cells.

For `O=C(NCCCCC1CCN(C(=O)c2ccccc2)CC1)c1ccc2nccn2c1` [N-[4-(1-benzoylpiperidin-4-yl)butyl]imidazo[1,2-a]pyridine-6-carboxamide], the results for the half-inhibitory concentration (IC50) (in test [1]; in the test with A2780 cells) were 5.5 nM and 5.7 nM, respectively.

Turning to `CSc1ncccc1C(=O)N1CCC(CCCCNC(=O)c2cc3cnccc3[nH]2)CC1` [N-[4-(1-{[2-(methylsulfanyl)pyridin-3-yl]carbonyl}piperidin-4-yl)butyl]-1H-pyrrolo[3,2-c]pyridine-2-carboxamide], the IC50 in test [1] was determined as 8.3 nM; with A2780 cells, 0.7 nM.

Consider `O=C(NCCCCN1CCN(C(=O)c2ccccc2)CC1)c1cc2cnccc2[nH]1` [N-[4-(4-benzoylpiperazin-1-yl)butyl]-1H-pyrrolo[3,2-c]pyridine-2-carboxamide], for which the 50% inhibitory concentration (IC50) is 16 nM in test [1] and 94.7 nM in the test with A2780 cells.

In the case of `Cc1ccc(F)cc1C(=O)N1CCC(CCCCNC(=O)c2cc3ccncc3s2)CC1` [N-(4-{1-[(5-fluoro-2-methylphenyl)carbonyl]piperidin-4-yl}butyl)thieno[2,3-c]pyridine-2-carboxamide], the IC50 worked out at 4.5 nM in test [1] and 1.8 nM in the test with A2780 cells.
